pKi: −log10 of the molar value. Where two headings read alike, the source gives them in different places.
Columns and labels:
NDM-1 = NDM-1 (Klebsiella pneumoniae, UniProt C7C422); experiment: In vitro enzyme inhibition assay, purified NDM-1 (imipenem hydrolysis, UV 299 nm); type: biochemical
Protocol: (§1) Enzyme inhibition assays were performed using purified MBL enzymes (NDM-1; VIM-1; VIM-2; IMP-1) in 10 mM HEPES buffer pH 7.5 in 96-well microtiter plates. Imipenem (300 μM) was used as substrate and its hydrolysis was followed at UV 299 nm during 10 mn every 30 seconds using a Perkin Elmer Envision UV fluorescence plate reader.
(§2) Mean Ki values from multiple experiments are presented below.
(§3) Studies were undertaken to compare the compounds of the invention with structurally similar compounds (“Comp. x”). Experiments were conducted as described above.

IMP-1 = IMP-1 (Serratia marcescens, UniProt P52699); experiment: In vitro enzyme inhibition assay, purified IMP-1 (imipenem hydrolysis, UV 299 nm); type: biochemical
Sequence of IMP-1 (P52699 19-246, looked up, species assumed): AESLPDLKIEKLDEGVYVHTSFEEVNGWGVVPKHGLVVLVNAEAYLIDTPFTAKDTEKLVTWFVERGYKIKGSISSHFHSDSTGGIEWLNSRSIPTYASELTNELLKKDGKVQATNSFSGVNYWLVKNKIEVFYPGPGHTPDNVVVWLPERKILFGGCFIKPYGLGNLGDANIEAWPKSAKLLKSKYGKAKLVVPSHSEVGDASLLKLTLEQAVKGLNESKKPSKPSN
Protocol: as §1, §2, §3

VIM-1 = VIM-1 (Pseudomonas aeruginosa, UniProt A0A0F7KYQ8); experiment: In vitro enzyme inhibition assay, purified VIM-1 (imipenem hydrolysis, UV 299 nm); type: biochemical
Protocol: as §1, §2, §3

K. pneumoniae NTBC104 = experiment: In vivo efficacy, mouse thigh infection with K. pneumoniae NTBC104; details: meropenem 30 mg/kg plus compound 30 mg/kg, 9 hours post infection
Protocol: (§4) Mice were infected in the thigh with K. pneumoniae NTBC104. […] The MIC of meropenem in the presence of 8 ug/mL of the compound of Example 2 is 4 ug/mL.
At the end of the experiment (9 hours post infection) the animals were sacrificed and the numbers of colony forming units (CFUs) were measured in order to quantify bacterial load (extent of the infection).

VIM-2 = VIM-2 (Escherichia coli, UniProt Q5U7L7); experiment: In vitro enzyme inhibition assay, purified VIM-2 (imipenem hydrolysis, UV 299 nm); type: biochemical
Protocol: as §1, §2, §3

[1] = PK study, i.v. dosing in mice; type: in vivo, male Swiss albino mice; details: i.v. 1 mg/kg; for AUC / C0 / clearance: mouse, plasma, iv, male Swiss albino mice; for AUC: read-out: AUC (area under the curve); for C0: read-out: C0 (plasma concentration); for clearance: read-out: Cl (clearance)
Protocol: Compound A and Example 7 were dosed i.v. at 1 mg/kg to male Swiss albino mice.

[2] = Plasma stability of test compounds in human plasma; type: in vitro ADME; details: 1 μM, 37° C.
Protocol: [table] Test compound and QC compound were incubated at a final concentration of 1 μM in plasma at 37° C. in shaker water bath with gentle shaking. At predetermined time points, reaction was terminated with 200 μL of acetonitrile containing internal standard and centrifuged at 4000×RCF, 4° C. for 20 minutes. Supernatant was separated and analyzed by LC-MS/MS. The following equation was used to determine the percentage remaining of test/QC compound following the procedure above: […]

[3] = Plasma protein binding, rapid equilibrium dialysis, human plasma; type: in vitro ADME; details: 100% plasma, 5 h equilibrium dialysis
Protocol: [table] Test compound was spiked in plasma to a final concentration of 10 μM. An aliquot of 300 μL of plasma was placed in red chamber of the insert and 500 μL of PBS was placed into white chamber of the insert. The plate was incubated at 37° C. in thermomixer at 400 rpm for 5 hours. After incubation, the samples were matrix equilibrated with opposite matrix (10 μL of plasma/100 μL of buffer sample was matched with 100 μL of blank buffer/10 μL of plasma). Matrix matched samples were precipitated with 200 μL of acetonitrile containing internal standard. Samples were vortexed at 1000 rpm for 5 min and centrifuged at 4000 rpm for 10 min. Supernatant was separated, diluted 2 fold with water and analyzed on LC-MS/MS. Blank control samples were processed immediately after the preparation of plasma working stock solutions. These samples served as a measure for calculating the % recovery of test compounds. The percent plasma bound fraction was calculated by the following equations: % Unbound=100*FC/TC % Recovery=100*(FC+TC)/T0 where • TC=Total compound concentration as determined by the calculated concentration on the plasma side of the membrane • FC=Free compound concentration as determined by the calculated concentration on the buffer side of the membrane • T0=Total compound concentration as determined before dialysis For each set of duplicates/compound, the percentage bound, percentage unbound and percentage recovery was determined.

[4] = tested on: NTBC104-1 (K. pneumoniae strain expressing NDM-1 and SHV-11); experiment: Meropenem MIC, broth micro-dilution, NTBC104-1; type: cell-based; details: 8 ug/mL of the compound
Protocol: The experiments were carried out using the ‘broth micro-dilution method’ according to the protocols M07-A8 established by the Clinical Laboratory Standards Institute (CLSI). Serial dilutions of the β-lactam antibiotic (Meropenem) were prepared in 96-well plates in cation-adjusted Mueller-Hinton broth (CAMHB); the concentration range was defined from 0.03 mg/L to 512 mg/L. The compounds were added at a constant concentration of 8 μg/mL. A bacterial inoculum of each strain (clinical isolates) was adjusted to a 0.5 McFarland turbidity standard in physiologic serum (0.9% NaCl), then diluted 1:100 in CAMHB and added to each well to give a final bacterial cell number of 5×10^5 CFU/well. After incubation for 18-20 hours in a heating chamber at 37° C., the growth inhibition was evaluated by the absence of any bacterial development.
Compounds of the invention were tested at a constant concentration of 8 μg/mL. The clinical strains used in these potentiation experiments were NTBC020 (E. coli strain expressing NDM-1, TEM-1 and CTX-M-15); NTBC035-2 (K. pneumoniae strain expressing NDM-1, CMY-4 and SHV-11); NTBC104-1 (K. pneumoniae strain expressing NDM-1 and SHV-11); NTBC123 (K. pneumoniae strain expressing NDM-1); NTBC018 (C. freundii strain expressing VIM-2); NTBC024 (K. pneumoniae strain expressing VIM-19, TEM-1 and CTX-M-3); NTBC042 (E. coli strain expressing VIM-1, TEM-1, CTX-M-15, SHV-12); NTBC055 (E. Coli strain expressing VIM-1); NTBC062 (K. pneumoniae strain expressing IMP-1 and TEM-1) and NTBC039 (K. oxytoca strain expressing IMP-28).
as §4
Experiments were carried out using the ‘broth micro-dilution method’ according to the protocols M07-A8 established by the Clinical Laboratory Standards Institute (CLSI). […] After incubation for 18-20 hours in a heating chamber at 37° C., the growth inhibition was evaluated by the absence of any bacterial development. […]

[5] = mean Ki from multiple experiments, imipenem 300 μM, Cheng-Prusoff from IC50, read-out: Ki NDM-1
[6] = mean Ki from multiple experiments, imipenem 300 μM, Cheng-Prusoff from IC50, read-out: Ki IMP-1
[7] = mean Ki from multiple experiments, imipenem 300 μM, Cheng-Prusoff from IC50, read-out: Ki VIM-1
[8] = mean Ki from multiple experiments, imipenem 300 μM, Cheng-Prusoff from IC50, read-out: Ki VIM-2
[9] = comparative study bands, read-out: Ki NDM-1 (comparative study)
[10] = comparative study bands, read-out: Ki IMP-1 (comparative study)
[11] = comparative study bands, read-out: Ki VIM-1 (comparative study)
[12] = comparative study bands, read-out: Ki VIM-2 (comparative study)

Sequence of NDM-1 (C7C422 29-270, looked up): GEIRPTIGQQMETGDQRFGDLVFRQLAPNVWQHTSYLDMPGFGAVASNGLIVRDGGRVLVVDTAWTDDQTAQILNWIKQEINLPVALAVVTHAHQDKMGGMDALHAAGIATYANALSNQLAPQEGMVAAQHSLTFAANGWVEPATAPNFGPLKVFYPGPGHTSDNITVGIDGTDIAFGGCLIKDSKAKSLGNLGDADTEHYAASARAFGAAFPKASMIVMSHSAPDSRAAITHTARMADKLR

SMILES | pKi (NDM-1; [5]) | pKi (IMP-1; [6]) | pKi (VIM-1; [7]) | pKi (VIM-2; [8]) | AUC [1] [ng·h/mL] | C0 [1] [ng/mL] | clearance [1] [mL/min/kg] | fraction unbound at 5 h, 10 μM [3] | Stability in human plasma, % remaining ([2]; after 5 hours) [% remaining after 5 hours] | cleared from the blood slower than Compound A ([1]; same dosage, mice) | exposure (AUC) compared to Compound A ([1]; same dosage, mice) [fold] | maximum concentration compared to Compound A ([1]; same dosage, mice) [fold] | Log10 reduction in CFUs compared to meropenem alone (K. pneumoniae NTBC104) [Log10] | Stability in human plasma, % remaining ([2]; after 2 hours) [% remaining after 2 hours] | pKi (NDM-1; [9]) | pKi (IMP-1; [10]) | pKi (VIM-1; [11]) | pKi (VIM-2; [12]) | MIC of meropenem in the presence of the compound, K. pneumoniae NTBC104 [4] [µg/mL]
N=C(N)NNC(=O)Nc1c(F)cc(S(=O)(=O)Nc2scnc2C(=O)O)cc1F [Example 26, 5-[[3,5-difluoro-4-(guanidinocarbamoylamino)phenyl]sulfonylamino]thiazole-4-carboxylic acid] | > 7.30 | 5.00 to 6.00 | 6.30 to 6.70 | 7.30 to 7.70 | – | – | – | – | – | – | – | – | 1.8 | – | – | – | – | – | –
NCC(=O)Nc1c(F)cc(S(=O)(=O)Nc2scnc2C(=O)O)cc1F [Comp. B, reference compound] | – | – | – | – | – | – | – | – | 0 | – | – | – | – | – | > 7.52 | 5.30 to 6.22 | 6.30 to 6.52 | 6.82 to 7.00 | –
N=C(N)NCC(=O)Nc1c(F)cc(S(=O)(=O)Nc2scnc2C(=O)O)cc1F [Example 2, 5-[[3,5-difluoro-4-[(2-guanidinoacetyl)amino]phenyl]sulfonylamino]thiazole-4-carboxylic acid] | > 7.30 | 5.00 to 6.00 | 6.30 to 6.70 | 6.82 to 7.30 | – | – | – | 0.19 | – | – | – | – | 1.6 | 73 | > 7.52 | 5.30 to 6.22 | 6.30 to 6.52 | 7.00 to 7.30 | 4

Second part, led by results:

pKi (NDM-1; [5]) | pKi (IMP-1; [6]) | pKi (VIM-1; [7]) | pKi (VIM-2; [8]) | AUC [1] [ng·h/mL] | C0 [1] [ng/mL] | clearance [1] [mL/min/kg] | fraction unbound at 5 h, 10 μM [3] | Stability in human plasma, % remaining ([2]; after 5 hours) [% remaining after 5 hours] | cleared from the blood slower than Compound A ([1]; same dosage, mice) | exposure (AUC) compared to Compound A ([1]; same dosage, mice) [fold] | maximum concentration compared to Compound A ([1]; same dosage, mice) [fold] | SMILES | Log10 reduction in CFUs compared to meropenem alone (K. pneumoniae NTBC104) [Log10] | Stability in human plasma, % remaining ([2]; after 2 hours) [% remaining after 2 hours] | pKi (NDM-1; [9]) | pKi (IMP-1; [10]) | pKi (VIM-1; [11]) | pKi (VIM-2; [12]) | MIC of meropenem in the presence of the compound, K. pneumoniae NTBC104 [4] [µg/mL]
– | – | – | – | 9 | 17 | 819 | 0.097 | – | – | – | – | NCC(=O)Nc1ccc(S(=O)(=O)Nc2scnc2C(=O)O)cc1F [Comp. A, reference compound] | – | 29 | – | – | – | – | –
6.70 to 7.30 | 5.00 to 6.00 | 6.30 to 6.70 | 6.82 to 7.30 | 1040 | 1810 | 16 | 0.392 | 100 | about 50 fold | > 100 | > 100 | N=C(N)NCC(=O)Nc1ccc(S(=O)(=O)Nc2scnc2C(=O)O)cc1F [Example 7, 5-[[3-fluoro-4-[(2-guanidinoacetyl)amino]phenyl]sulfonylamino]thiazole-4-carboxylic acid] | 1.7 | – | – | – | – | – | –

Source: patent US11299467B2 (Antabio SAS, priority 2017, dated 2022)
